Measurements taken from article PMC6338552 (Biochemistry, 2018).

Target: JNK1/TMR-JIPtide (Homo sapiens, UniProt P45983)
Format: binding
Details: relative to apo-JNK1

Sequence of JNK1/TMR-JIPtide (P45983 1-384 isoform P45983-2, species assumed): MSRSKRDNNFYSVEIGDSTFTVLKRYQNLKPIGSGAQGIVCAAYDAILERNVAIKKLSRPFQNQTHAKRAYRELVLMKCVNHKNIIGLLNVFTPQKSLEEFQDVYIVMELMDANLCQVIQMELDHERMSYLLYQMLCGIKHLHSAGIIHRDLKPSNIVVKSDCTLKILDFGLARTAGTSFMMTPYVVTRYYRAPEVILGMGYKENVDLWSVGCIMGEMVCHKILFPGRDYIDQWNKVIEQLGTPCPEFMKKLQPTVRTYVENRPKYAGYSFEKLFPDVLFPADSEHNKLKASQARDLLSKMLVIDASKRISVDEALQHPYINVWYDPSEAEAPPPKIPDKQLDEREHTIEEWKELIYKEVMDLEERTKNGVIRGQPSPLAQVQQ

Nc1ncnc2c1ncn2[C@@H]1O[C@H](COP(=O)(O)OP(=O)(O)OP(=O)(O)O)[C@@H](O)[C@H]1O [ATP, adenosine triphosphate]
effect of ATP-binding site ligand on JNK1 affinity for JIPtide (in words): two-fold more tightly
